Some test systems named below: A498; CCRF-CEM; COLO 205; EKVX; HCT-116; HCT-15; HOP-62; IGROV-1; Malme-3M; OVCAR-3; OVCAR-5; OVCAR-8; SF-268; SN12C; U-251; 786-0; CAKI-1; UO-31.
What all share (assay): NCI tumour cell line growth inhibition, 48 h

Molecules are shown by their SMILES.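 All cell lines were grown in 96-well plates and treated with compound for 48 hours. Abbreviation: GI50, concentration required for 50% inhibition of growth.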 Calls of active or inactive are those of the source. Rule as the data show it: active = GI50 up to about 1.1 µM and inactive = higher. Where only a bound is given, the exact number is not on record here.

On to `C/C(=N/NC(N)=S)c1ccc2ccccc2c1`, for which the GI50 with A498 was 42.4 µM (inactive); in the experiment on CCRF-CEM it was 22.5 µM (inactive); in the experiment with COLO 205, 21.4 µM (inactive); in the experiment with EKVX, 0.443 µM (active); with HCT-116, 23.8 µM (inactive); in the experiment on HCT-15, 22.2 µM. In addition, the GI50 in the experiment with HOP-62 is 46.6 µM (inactive); in the experiment on IGROV-1, 32.7 µM (inactive); in the experiment with Malme-3M, 41 µM (inactive); in the experiment with OVCAR-3, 30.4 µM (inactive); in the experiment with OVCAR-5, 24 µM (inactive); in the experiment with OVCAR-8, 32.9 µM (inactive). Further, the GI50 was 23.3 µM (inactive) in the experiment with SF-268, 32.7 µM (inactive) in the experiment with SN12C and 24.8 µM (inactive) in the experiment with U-251.
With `Cc1ccc(NCCO)cc1`, the GI50 in the experiment with 786-0, with CAKI-1, in the experiment on CCRF-CEM, with COLO 205, in the experiment with EKVX and in the experiment with HCT-116 was > 100 µM (inactive) throughout. In addition, the GI50 in the experiment with HCT-15 was above 100 µM; in the experiment with HOP-62 it was > 100 µM (inactive); in the experiment on IGROV-1, > 100 µM (inactive); in the experiment on Malme-3M, > 100 µM (inactive); in the experiment with OVCAR-3, > 100 µM (inactive); with OVCAR-5, > 100 µM (inactive). Further, the GI50 in the experiment with OVCAR-8, with SF-268, with SN12C, with U-251 and in the experiment with UO-31 was > 100 µM (inactive) throughout.
Take `O=C(Cc1nc2ccc([N+](=O)[O-])cc2nc1O)C(=O)Nc1ccccc1[N+](=O)[O-]`: the GI50 in the experiment on 786-0, with A498, in the experiment with CAKI-1, in the experiment on CCRF-CEM, in the experiment on COLO 205 and in the experiment with EKVX was > 100 µM (inactive) each time. For the same molecule, the GI50 is 95.7 µM (inactive) in the experiment with HCT-116; 44.1 µM with HCT-15; > 100 µM (inactive) in the experiment with IGROV-1; > 100 µM (inactive) with Malme-3M; > 100 µM (inactive) with OVCAR-3; > 100 µM (inactive) in the experiment with OVCAR-5. In addition, the GI50 with SF-268 and in the experiment with UO-31 was > 100 µM (inactive) throughout.
`COc1cccc(NC(=O)/C(CC(=O)CC(c2ccccc2)c2c(O)c3ccccc3oc2=O)=N\NC(C)(C)C)c1OC` (stereo unspecified): the GI50 with 786-0 is > 100 µM (inactive); in the experiment with A498, > 100 µM (inactive); in the experiment on CAKI-1 it was 36.1 µM (inactive); in the experiment on CCRF-CEM it was 25.7 µM (inactive); with COLO 205, > 100 µM (inactive); in the experiment with EKVX, 43.4 µM (inactive). Also, the GI50 in the experiment on HCT-116 is 69 µM (inactive); with HCT-15, 28.4 µM; with HOP-62, 86.1 µM (inactive); in the experiment with IGROV-1, 64.3 µM (inactive); with Malme-3M it was > 100 µM (inactive); with OVCAR-3 it was 78.9 µM (inactive). Also, the GI50 with OVCAR-5 was > 100 µM (inactive); in the experiment on OVCAR-8 it was > 100 µM (inactive); in the experiment on SF-268, > 100 µM (inactive); in the experiment with U-251 it was > 100 µM (inactive); with UO-31, 72.1 µM (inactive).
As for `Cc1ccc(NC(=O)CSc2nnc(Cc3ccccc3)o2)c(C)c1`, the GI50 in the experiment with 786-0 was > 100 µM (inactive); in the experiment on CCRF-CEM it was > 100 µM (inactive); in the experiment on COLO 205, > 100 µM (inactive); in the experiment with EKVX, > 100 µM (inactive); with HCT-116, > 100 µM (inactive); in the experiment with HCT-15, above 100 µM. Besides, the GI50 with HOP-62, in the experiment on Malme-3M, in the experiment on OVCAR-8, in the experiment with SF-268, in the experiment with SN12C and with U-251 was > 100 µM (inactive) in each case. Also, in the experiment with UO-31, the GI50 is > 100 µM (inactive).
As to `CCOC(=O)/C=C1\Nc2ccccc2C(c2ccccc2)=NC1OC(C)=O` (stereo unspecified), the GI50 with 786-0 is > 100 µM (inactive); in the experiment on A498, > 100 µM (inactive); with CAKI-1, 94.6 µM (inactive); with CCRF-CEM, > 100 µM (inactive); in the experiment on COLO 205, > 100 µM (inactive); in the experiment with EKVX, > 100 µM (inactive). In addition, the GI50 in the experiment on HCT-116 was > 100 µM (inactive); in the experiment on HCT-15 it was above 100 µM; with HOP-62, > 100 µM (inactive); with IGROV-1, > 100 µM (inactive); in the experiment on Malme-3M, > 100 µM (inactive); in the experiment with OVCAR-3 it was > 100 µM (inactive). Also, the GI50 is > 100 µM (inactive) in the experiment on OVCAR-8; > 100 µM (inactive) with SF-268; > 100 µM (inactive) in the experiment on SN12C; > 100 µM (inactive) with U-251; 44 µM (inactive) in the experiment on UO-31.
On to `CSc1nsc(-c2ccccc2)[s+]1.[O-][Cl+3]([O-])([O-])[O-]`, for which the GI50 with 786-0, in the experiment on A498, in the experiment with CAKI-1, in the experiment on CCRF-CEM, in the experiment on COLO 205 and with EKVX was > 100 µM (inactive) throughout. Besides, the GI50 in the experiment with HCT-116 was > 100 µM (inactive); in the experiment on HCT-15, above 100 µM; with HOP-62, > 100 µM (inactive); with IGROV-1, > 100 µM (inactive); in the experiment with Malme-3M, > 100 µM (inactive); in the experiment with OVCAR-3, > 100 µM (inactive). Besides, the GI50 with OVCAR-8, in the experiment on SF-268, in the experiment on SN12C, in the experiment with U-251 and in the experiment with UO-31 was > 100 µM (inactive) throughout.
Turning to `COc1ccc(-c2cc3[nH]nc(N)c3c(=O)o2)cc1`, the GI50 is 76.9 µM (inactive) in the experiment with A498; 73.6 µM (inactive) with CAKI-1; > 100 µM (inactive) in the experiment with CCRF-CEM; > 100 µM (inactive) in the experiment with COLO 205; 14 µM (inactive) with EKVX; > 100 µM (inactive) in the experiment on HCT-116. The GI50 is above 100 µM in the experiment with HCT-15; > 100 µM (inactive) in the experiment with IGROV-1; > 100 µM (inactive) with Malme-3M; > 100 µM (inactive) in the experiment with OVCAR-5; > 100 µM (inactive) in the experiment with OVCAR-8; 81.3 µM (inactive) in the experiment with SF-268. The GI50 with SN12C was > 100 µM (inactive); with U-251, 89.9 µM (inactive); in the experiment with UO-31, > 100 µM (inactive).
Consider `COC(=O)C(Cc1cc(OC)c(OC)c(OC)c1)C(=O)OC`, for which the GI50 was > 320 µM (inactive) in the experiment with 786-0; > 320 µM (inactive) with CAKI-1; > 320 µM (inactive) in the experiment with CCRF-CEM; > 320 µM (inactive) in the experiment with COLO 205; > 320 µM (inactive) with EKVX; above 320 µM in the experiment with HCT-15. Further, the GI50 in the experiment with HOP-62, in the experiment with IGROV-1, in the experiment on Malme-3M, with OVCAR-3, in the experiment with OVCAR-5 and in the experiment with OVCAR-8 was > 320 µM (inactive) in each case. Moreover, the GI50 with SF-268, in the experiment on SN12C and in the experiment on U-251 was > 320 µM (inactive) throughout.
With `Cc1cc(Cl)ccc1NC(=O)CC1SC(NC(=O)c2ccccc2Cl)=NC1=O` (stereo unspecified), the GI50 with 786-0 was 19 µM (inactive); in the experiment on A498 it was > 100 µM (inactive); in the experiment with CAKI-1 it was 19.2 µM (inactive); in the experiment on CCRF-CEM, 2.86 µM (inactive); in the experiment on EKVX it was > 100 µM (inactive); in the experiment on HCT-116 it was 17.9 µM (inactive). The GI50 in the experiment with HCT-15 is 19.1 µM; with IGROV-1, 38.2 µM (inactive); in the experiment with Malme-3M, 19.7 µM (inactive); in the experiment with OVCAR-3, 17.5 µM (inactive); in the experiment on OVCAR-5 it was 27.9 µM (inactive); with OVCAR-8 it was > 100 µM (inactive). In addition, the GI50 was 16.9 µM (inactive) with SF-268, 17.7 µM (inactive) in the experiment with SN12C, 15.7 µM (inactive) with U-251 and 21.6 µM (inactive) in the experiment with UO-31.
With `c1ccc(P(=Nc2ccccc2N=P(c2ccccc2)(c2ccccc2)c2ccccc2)(c2ccccc2)c2ccccc2)cc1`, the GI50 in the experiment with 786-0 was 0.555 µM (active); in the experiment with A498, 0.986 µM (active); in the experiment on CAKI-1, 0.444 µM (active); in the experiment on CCRF-CEM, 1.3 µM (inactive); in the experiment on COLO 205, 1.65 µM (inactive); with EKVX, 1.21 µM (inactive). The GI50 in the experiment with HCT-116 is 0.593 µM (active); in the experiment on HOP-62 it was 0.558 µM (active); in the experiment with IGROV-1 it was 0.498 µM (active); in the experiment with Malme-3M, 0.256 µM (active); with OVCAR-3, 0.164 µM (active); with OVCAR-5, 1.53 µM (inactive). The GI50 with OVCAR-8 was 0.364 µM (active); in the experiment on SF-268, > 100 µM (inactive); with SN12C it was 0.293 µM (active); with U-251 it was 0.326 µM (active); with UO-31, 2.31 µM (inactive).
Take `CCOc1ccc(NC(=O)C(=O)CC(=O)c2sc(NNC(C)=O)nc2C)cc1`: the GI50 in the experiment on A498 is > 100 µM (inactive); with CAKI-1, > 100 µM (inactive); in the experiment on CCRF-CEM it was > 100 µM (inactive); in the experiment on COLO 205, > 100 µM (inactive); in the experiment on EKVX, 40.9 µM (inactive); in the experiment on HCT-116, > 100 µM (inactive). Besides, the GI50 was above 100 µM in the experiment on HCT-15; > 100 µM (inactive) with HOP-62; > 100 µM (inactive) in the experiment with IGROV-1; > 100 µM (inactive) in the experiment with OVCAR-5; > 100 µM (inactive) in the experiment on OVCAR-8; > 100 µM (inactive) with SF-268. Further, the GI50 in the experiment with SN12C, in the experiment with U-251 and with UO-31 was > 100 µM (inactive) throughout.
As to `COc1ccc(/C(C#N)=C2/O/C(=N/N)C(c3ccc(OC)c(OC)c3)C2=O)cc1OC` (stereo unspecified), the GI50 is > 100 µM (inactive) with 786-0; > 100 µM (inactive) in the experiment on CAKI-1; > 100 µM (inactive) in the experiment with CCRF-CEM; > 100 µM (inactive) in the experiment with EKVX; > 100 µM (inactive) in the experiment on HCT-116; above 100 µM in the experiment on HCT-15. The GI50 in the experiment on IGROV-1, in the experiment on Malme-3M, in the experiment on OVCAR-3, in the experiment on SF-268, in the experiment on SN12C and in the experiment on U-251 was > 100 µM (inactive) in each case. In the experiment with UO-31, the GI50 is > 100 µM (inactive).

These data come from ChEMBL document CHEMBL1201862, “PubChem BioAssay data set” (2004).
